{
  "source": "paper PMC11488110",
  "about": "(Theranostics, 2024)",
  "key": {"BV-2 microglial cells": {"system": "BV-2 microglial cells", "experiment": "LPS-induced inflammatory responses in BV-2 microglia", "format": "cell-based, mouse"}, "SH-SY5Y cells": {"system": "SH-SY5Y cells", "experiment": "BACE1 expression (western blot) in SH-SY5Y cells", "format": "cell-based, human", "settings": "24 h", "protocol": "For the in vitro co-transfection assay, CV-1 monkey kidney cells were cultured in Dulbecco's modified Eagle's medium (DMEM) supplemented with 10% resin-charcoal-stripped fetal bovine serum (FBS), 100 U/mL penicillin, and 100 µg/mL streptomycin. To investigate the anti-inflammatory effects of 5a, BV-2 microglial cells were cultured in RPMI 1640 (Biowest) supplemented with 10% heat-inactivated FBS (Biowest), 2.05 mM L-glutamine (Gibco), and 100 U/mL penicillin/streptomycin (Gibco). Primary mouse astrocytes were isolated from postnatal day 1 C57BL/6N mouse pups. The cerebral cortices collected with the meninges removed were triturated by gentle pipetting and centrifuged. Primary astrocytes were resuspended and cultured in DMEM supplemented with 10% heat-inactivated FBS (Biowest), 10% heat-inactivated horse serum (Gibco), and 100 U/mL penicillin/streptomycin (Gibco). […]\nTotal proteins were extracted from cells or mouse brain tissues using radioimmunoprecipitation assay (RIPA) buffer (Sigma-Aldrich) containing a protease and phosphatase inhibitor cocktail (Roche Diagnostics). […] Protein concentrations were determined using Pierce® BCA Protein Assay Kit (Thermo Fisher Scientific). […] The western blot bands were analyzed using ImageJ software (NIH) and β-Actin or glyceraldehyde 3-phosphate dehydrogenase (GAPDH) were used as a loading control. […]"}, "APP/PS1 mice": {"system": "APP/PS1 mice", "experiment": "APP/PS1 transgenic mouse model of AD", "format": "in vivo", "settings": "30 mg/kg/day p.o. 10 days", "protocol": "All mice and rats were housed in a temperature- and humidity-controlled environment with a 12 h light/dark cycle and ad libitum access to food and water. All procedures were performed in accordance with the National Institutes of Health Guide for the Care and Use of Laboratory Animals and approved by the Institutional Animal Care and Use Committee of Korea Institute of Science and Technology (KIST-IACUC-2022-020-1). For the pharmacokinetics study, Sprague-Dawley rats were purchased from Koatech (South Korea) and maintained in a specific pathogen-free facility (Laboratory Animal Center, Daegu-Gyeongbuk Medical Innovation Foundation). For the LPS-induced neuroinflammation model or scopolamine-induced AD model, male C57BL/6N mice were obtained from DBL (South Korea). APP/PS1 (APPswe/PSEN1dE9) transgenic mice from the Jackson Laboratory (USA; stock number 004462) were maintained as hemizygotes on the C57BL/6; C3H genetic background at the Research Animal Resources Center of KIST. 10-week-old C57BL/6N and 12-month-old APP/PS1 were used in behavioral experiments with sex- and age-matched controls.\nFor the neuroinflammation model, C57BL/6N mice were intraperitoneally injected daily with 0.3 mg/kg LPS (Sigma-Aldrich, L2880) dissolved in saline (0.9% sodium chloride), for 6 consecutive days. In a non-genetic AD model, we induced acute memory deficits in C57BL/6N mice by intraperitoneal injection with 1 mg/kg of scopolamine hydrobromide (Sigma-Aldrich, S0929) dissolved in saline, 30 min before the behavioral tests. At the end of the experimental period, mice were deeply anesthetized with 2% avertin (500 mg/kg, i.p.) and transcardially perfused with saline. Brains were collected from each mouse, and the hippocampus and cortex were isolated and stored at -80 °C for biochemical analysis. Brain hemispheres were postfixed in 4% paraformaldehyde overnight at 4 °C, then placed in 30% sucrose solution for 48 h at 4 °C for cryoprotection and used for histological analysis.\nThe Y-maze test was used to evaluate the spatial learning and memory performance of mice. The Y-maze apparatus consisted of three identical arms disposed at a 120° angle from each other (41 cm long and 7 cm wide with 15 cm high walls). Mice were placed at the end of one arm and allowed to move freely in the maze for 10 min. The arm entries were manually recorded. Spontaneous alternation was defined as consecutive entries into three different arms and the percentage of alternation was calculated based on the following equation: alternation (%) = number of alternations/(total arm entries - 2) × 100.\nFixed mouse brains were embedded in an optimal cutting temperature compound (Leica, 3801480) and serially sectioned at 30 μm in a cryostat (Thermo Fisher Scientific, HM525 NX). Coronal hippocampal sections were stored in a storage solution (30% glycerol, 30% ethylene glycol, and 30% 0.2 M sodium phosphate buffer, pH 7.2) at 4 °C until use. After washing three times with PBS, the sections were blocked for 1 h with blocking buffer (0.3% Triton X-100 and 4% normal donkey serum in 0.1 M PBS) at room temperature, followed by incubation with primary antibodies in blocking buffer overnight at 4 °C. After washing with PBS, the sections were incubated with corresponding fluorescent secondary antibodies (Jackson ImmunoResearch, Alexa Fluor) for 1 h at room temperature and washed three times with PBS. Nuclei were counterstained with 4′,6-diamidino-2-phenylindole (DAPI; Invitrogen) during the second washing step. Sections were mounted with fluorescent mounting medium (Dako). Fluorescent images were acquired with the ImageXpress Pico (Molecular Devices; 20× magnification) or LSM 800 confocal microscope (Carl Zeiss; 40× magnification). Primary antibodies used are described in Table S6.\nZ-stack projected images (20 μm thickness with a step size of 2 μm or 4 μm) were analyzed using the ImageJ software (NIH). To quantify glial reactivity, the mean fluorescence intensity of GFAP or IBA1 was measured. […]"}},
  "data": [
    {"compound": "Cc1cc(SCc2[se]c(-c3ccc(C(F)(F)F)cc3)nc2C)ccc1OCC(=O)O", "note": "[Compound 5a, {2-Methyl-4-[4-methyl-2-(4-trifluoromethyl-phenyl)-selenazol-5-yl-methylsulfanyl]-phenoxy}-acetic acid]", "values": [
      {"measurement": "LPS-induced mRNA and protein levels of iNOS, TNF-α and IL-6", "setting": "BV-2 microglial cells; BV-2, LPS 0.2 μg/mL", "result": "reduced the LPS-induced increases"},
      {"measurement": "LPS-induced NO production (nitrite)", "setting": "BV-2 microglial cells; pretreatment 3 h, LPS 0.2 μg/mL 24 h", "result": "suppressed"},
      {"measurement": "LPS-induced phosphorylation of NF-κB p65", "setting": "BV-2 microglial cells; pretreatment 6 h, LPS 1 h", "result": "prevented the increase"},
      {"measurement": "BACE1 expression in SH-SY5Y cells", "setting": "SH-SY5Y cells", "result": "dose-dependently reduced the expression of BACE1"},
      {"measurement": "Astrocytic hypertrophy (Sholl analysis)", "setting": "APP/PS1 mice", "result": "significantly suppressed"},
      {"measurement": "BACE1 levels in cortical homogenates", "setting": "APP/PS1 mice", "result": "significantly diminished"},
      {"measurement": "GFAP and IBA1 immunoreactivity, dentate gyrus", "setting": "APP/PS1 mice", "result": "significantly inhibited"},
      {"measurement": "Gfap mRNA in hippocampus homogenates", "setting": "APP/PS1 mice", "result": "reduced levels"},
      {"measurement": "Number and area of thioflavin-S Aβ plaques, cortex and hippocampus", "setting": "APP/PS1 mice", "result": "significant reduction in the number and area of Aβ plaques"},
      {"measurement": "Number of microglia per plaque", "setting": "APP/PS1 mice", "result": "significant increase"},
      {"measurement": "Overall tau hyperphosphorylation in the brain", "setting": "APP/PS1 mice", "result": "inhibiting overall tau hyperphosphorylation"},
      {"measurement": "Phagolysosome area within plaque-associated microglia and internalized Aβ area", "setting": "APP/PS1 mice", "result": "increased the phagolysosome area"},
      {"measurement": "Plaque-associated BACE1 accumulation, hippocampus", "setting": "APP/PS1 mice", "result": "significantly reduced"},
      {"measurement": "Y-maze spontaneous alternation", "setting": "APP/PS1 mice", "result": "prevented the decrease in alternation percentage"},
      {"measurement": "Y-maze total number of arm entries", "setting": "APP/PS1 mice", "result": "without inducing any changes"},
      {"measurement": "AT8-positive phosphorylated tau around Aβ plaques", "setting": "APP/PS1 mice; not significant", "result": "tend to decrease"}
    ]}
  ]
}
